Measured values as given in patent US20150320709A1, “METHODS AND COMPOSITIONS FOR FACILITATING WEIGHT LOSS BY ADMINISTRATION OF THYROID HORMONES” (priority 2011, published 2015).

What was measured:
[1] = Low thyroid symptoms / clinical status of weight loss program patients on thyroid hormone treatment; assay type: in vivo, human; conditions: for reported symptoms: Patient Example 4
[2] = as above; assay type: in vivo, human
Description: The first patient example is a person, 5′2″, weight 268 lbs, body mass index (BMI) 49 (nl 19-24; overweight 25-29; obesity≧30). Baseline blood pressure was 110/74, blood sugar (BS) was 153 mg/dL 10 days after their first visit. Their medical problems at baseline included obesity, type 2 diabetes mellitus (DM2), high blood pressure (HTN), fatigue, depression, and asthma. Their medications included glipizide 10 mg daily, amitriptyline 50 mg daily, metoprolol 50 mg daily, furosemide 40 mg daily, potassium chloride, lisinopril 10 mg daily, Advair Discus 500/50 twice daily (bid), and montelukast 10 mg daily. They were started on our comprehensive program. Five months after starting their weight loss treatment, they developed symptoms of hypothyroidism with constipation and fatigue. They had lost 28 lbs by this time and was having difficulty losing more weight even though they were eating less than they were before their weight loss treatment began. At the start of treatment, their FT4 was 0.9 ng/dL (nl 0.7-1.48). At the time of their low thyroid symptoms, their FT3 was 2.9 pg/mL (nl 1.71-3.71) and their FT4 was 0.91 ng/dL (nl 0.7-1.48). They were then treated with thyroid hormone (desiccated thyroid with a ratio of T4:T3 of about 4:1) at 60 mg daily for 6 days to acclimate, then increased to 120 mg daily. […] After two years on their weight loss treatment, their weight was 231 lbs. […] We tested for rT3 at this point. Their labs on the 150 mg dose of desiccated thyroid were: rT3 394 pg/mL (nl 90-350), FT3 3.94 pg/mL (nl 1.71-3.71), and FT4 1.24 ng/dL (nl 0.7-1.48). The task of bringing down their rT3 was then addressed. Over a period of a few months, their desiccated thyroid hormone was discontinued and instead the patient was given gradually increasing doses of T3 only, starting at 20 mcg daily and gradually increasing the T3 to 60 mcg bid. Five months after starting on T3 with increasing doses, their weight had dropped to 209 lbs. Their BP was 118/66 mmHg with pulse of 74 on lisinopril 10 mg daily, metoprolol 50 mg bid, and furosemide 40 mg daily. Instead of glipizide, they were taking metformin 500 mg bid. […] Their most recent labs on 60 mcg bid of T3 were FT3 3.8 pg/mL (nl 1.71-3.71), FT4 0.64 ng/dL (nl 0.7-1.48) and rT3 137 pg/mL (nl 90-350). Four months prior to this visit their BS was 125 mg/dl.
The second patient example is a person, 5′2″, weight 150 lbs, BMI 28 (nl 18.5-24.9; overweight 25-29.9; obesity≧30), with HTN. Their blood pressure was slightly elevated at 148/85 (on lisinopril 5 mg daily). Their medical problems at baseline included history of Hashimoto's thyroiditis, borderline high TSH, elevated lipids, and HTN. Their medications were lisinopril 5 mg daily, estradiol 2 mg daily, and rofecoxib 25 mg daily for osteoarthritis of their large joints. […]

[3] = Patient Example 2, T3 only, 25 mcg bid

N[C@@H](Cc1cc(I)c(Oc2ccc(O)c(I)c2)c(I)c1)C(=O)O [T3, (2S)-2-amino-3-[4-(4-hydroxy-3-iodo-phenoxy)-3,5-diiodo-phenyl]propanoic acid]
low thyroid symptoms ([1]; Patient Example 3, T3 25 mcg t.i.d. alone, about a week after stopping desiccated thyroid): low thyroid symptoms returned | reported symptoms ([1]; T3 50 mcg 2 PO q am and 1 PO 8-10 hours later, initial visit): feeling cold, hair loss and nail peeling | reported symptoms ([1]; same T3 dose (not decreased), over 6 weeks later): continued to report suffering from fatigue and coldness | clinical thyroid status ([2]; Patient Example 1, on T3 only): clinically euthyroid | lipids [2, 3]: improved compared to baseline | low thyroid symptoms [2, 3]: no longer suffered from hair loss; their bowels were normal, they felt well
